Measurements as given in the kinase profiling compilation of Christmann-Franck et al. (2016).

Key:
Assay in all cases: radiometric filter-binding kinase assay, Kinase HotSpot
Details in all cases: compound 0.5 µM; ATP 10 µM
SRPK3 (human) = SRPK3 (human) (UniProt Q9UPE1)
MAP3K9 (human) = MAP3K9 (human) (UniProt P80192)
BRSK1 (human) = BRSK1 (human) (UniProt Q8TDC3)
PAK6 (human) = PAK6 (human) (UniProt Q9NQU5)
STK25 (human) = STK25 (human) (UniProt O00506)
FGFR3 (human) = FGFR3 (human) (UniProt P22607)
NEK4 (human) = NEK4 (human) (UniProt P51957)
ZAP70 (human) = ZAP70 (human) (UniProt P43403)
CSK (human) = CSK (human) (UniProt P41240)
Sequence of CSK (human) (P41240 whole entry, looked up): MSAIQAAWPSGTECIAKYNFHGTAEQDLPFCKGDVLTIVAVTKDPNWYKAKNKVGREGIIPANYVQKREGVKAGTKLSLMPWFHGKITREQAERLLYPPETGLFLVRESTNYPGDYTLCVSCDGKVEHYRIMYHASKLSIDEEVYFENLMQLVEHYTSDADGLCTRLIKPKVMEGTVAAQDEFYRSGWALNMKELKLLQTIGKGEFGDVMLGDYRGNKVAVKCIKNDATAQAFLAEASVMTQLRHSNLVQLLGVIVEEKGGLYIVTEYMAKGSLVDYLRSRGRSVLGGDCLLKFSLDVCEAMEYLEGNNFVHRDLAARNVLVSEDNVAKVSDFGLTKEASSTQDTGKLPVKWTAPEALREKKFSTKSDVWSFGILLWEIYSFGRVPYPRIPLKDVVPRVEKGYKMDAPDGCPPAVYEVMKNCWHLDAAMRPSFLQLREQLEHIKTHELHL

CAMK2G (human) = CAMK2G (human) (UniProt Q13555)
TGFBR1 (human) = TGFBR1 (human) (UniProt P36897)
CAMKK2 (human) = CAMKK2 (human) (UniProt Q96RR4)
CLK4 (human) = CLK4 (human) (UniProt Q9HAZ1)
ERBB2 (human) = ERBB2 (human) (UniProt P04626)
MAP4K5 (human) = MAP4K5 (human) (UniProt Q9Y4K4)
PIM3 (human) = PIM3 (human) (UniProt Q86V86)
EPHB2 (human) = EPHB2 (human) (UniProt P29323)
Sequence of EPHB2 (human) (P29323 whole entry, looked up): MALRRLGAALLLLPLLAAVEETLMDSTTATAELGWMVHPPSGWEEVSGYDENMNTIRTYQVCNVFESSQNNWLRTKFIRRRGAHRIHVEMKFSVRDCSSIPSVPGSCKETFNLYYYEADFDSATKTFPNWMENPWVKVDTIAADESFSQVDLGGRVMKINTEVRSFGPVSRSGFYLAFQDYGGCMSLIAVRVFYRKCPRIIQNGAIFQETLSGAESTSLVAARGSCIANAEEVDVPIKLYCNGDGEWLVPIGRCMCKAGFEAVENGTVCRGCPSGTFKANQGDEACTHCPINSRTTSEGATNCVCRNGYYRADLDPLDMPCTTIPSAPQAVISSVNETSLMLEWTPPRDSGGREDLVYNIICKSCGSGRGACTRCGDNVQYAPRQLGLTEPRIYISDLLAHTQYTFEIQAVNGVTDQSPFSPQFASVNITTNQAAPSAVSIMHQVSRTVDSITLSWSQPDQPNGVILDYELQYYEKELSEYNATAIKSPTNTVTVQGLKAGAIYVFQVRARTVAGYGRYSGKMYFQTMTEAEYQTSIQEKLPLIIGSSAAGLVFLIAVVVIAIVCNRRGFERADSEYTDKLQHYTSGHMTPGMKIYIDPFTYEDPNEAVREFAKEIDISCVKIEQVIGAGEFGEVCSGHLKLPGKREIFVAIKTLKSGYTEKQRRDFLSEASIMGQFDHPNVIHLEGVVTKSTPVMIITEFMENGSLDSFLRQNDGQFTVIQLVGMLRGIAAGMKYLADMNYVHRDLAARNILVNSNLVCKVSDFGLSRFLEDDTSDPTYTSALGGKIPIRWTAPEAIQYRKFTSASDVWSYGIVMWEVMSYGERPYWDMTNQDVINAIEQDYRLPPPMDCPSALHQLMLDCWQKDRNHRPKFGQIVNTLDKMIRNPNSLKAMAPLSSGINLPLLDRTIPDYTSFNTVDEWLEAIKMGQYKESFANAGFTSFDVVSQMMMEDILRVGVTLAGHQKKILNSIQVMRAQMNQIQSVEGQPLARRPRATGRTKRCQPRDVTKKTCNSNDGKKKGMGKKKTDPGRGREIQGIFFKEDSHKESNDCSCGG

EPHA5 (human) = EPHA5 (human) (UniProt P54756)
SYK (human) = SYK (human) (UniProt P43405)
GSK3B (human) = GSK3B (human) (UniProt P49841)
EPHA2 (human) = EPHA2 (human) (UniProt P29317)
CDC42BPA (human) = CDC42BPA (human) (UniProt Q5VT25)
CDK3 CCNE1 (human) = CDK3 CCNE1 (human) (UniProt Q00526+P24864)
EPHB1 (human) = EPHB1 (human) (UniProt P54762)
KDR (human) = KDR (human) (UniProt P35968)
MAP2K1 (human) = MAP2K1 (human) (UniProt Q02750)
WEE1 (human) = WEE1 (human) (UniProt P30291)
MAP3K2 (human) = MAP3K2 (human) (UniProt Q9Y2U5)
SRPK1 (human) = SRPK1 (human) (UniProt Q96SB4)
ULK1 (human) = ULK1 (human) (UniProt O75385)
RPS6KA3 KD1 KD2 (human) = RPS6KA3 KD1 KD2 (human) (UniProt P51812)
GRK6 (human) = GRK6 (human) (UniProt P43250)
Sequence of GRK6 (human) (P43250 whole entry, looked up): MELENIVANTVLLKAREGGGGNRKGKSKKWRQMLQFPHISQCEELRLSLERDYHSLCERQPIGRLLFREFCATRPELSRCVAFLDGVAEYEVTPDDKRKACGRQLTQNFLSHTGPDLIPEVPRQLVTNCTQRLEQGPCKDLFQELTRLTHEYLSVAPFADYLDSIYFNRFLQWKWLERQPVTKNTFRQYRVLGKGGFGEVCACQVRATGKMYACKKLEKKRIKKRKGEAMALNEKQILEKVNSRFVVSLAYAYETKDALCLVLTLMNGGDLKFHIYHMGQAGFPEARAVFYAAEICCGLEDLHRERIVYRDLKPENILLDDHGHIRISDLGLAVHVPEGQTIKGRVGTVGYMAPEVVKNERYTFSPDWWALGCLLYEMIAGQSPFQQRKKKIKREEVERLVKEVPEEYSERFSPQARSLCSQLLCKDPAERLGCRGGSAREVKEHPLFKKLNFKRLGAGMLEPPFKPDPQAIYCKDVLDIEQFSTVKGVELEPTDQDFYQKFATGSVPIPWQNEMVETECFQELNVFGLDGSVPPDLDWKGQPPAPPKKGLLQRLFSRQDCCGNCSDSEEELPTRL

MAPK1 (human) = MAPK1 (human) (UniProt P28482)
PRKG2 (human) = PRKG2 (human) (UniProt Q13237)
EGFR (human) = EGFR (human) (UniProt P00533)
RPS6KA5 KD2 (human) = RPS6KA5 KD2 (human) (UniProt O75582)
CSNK1D (human) = CSNK1D (human) (UniProt P48730)
Sequence of CSNK1D (human) (P48730 whole entry, looked up): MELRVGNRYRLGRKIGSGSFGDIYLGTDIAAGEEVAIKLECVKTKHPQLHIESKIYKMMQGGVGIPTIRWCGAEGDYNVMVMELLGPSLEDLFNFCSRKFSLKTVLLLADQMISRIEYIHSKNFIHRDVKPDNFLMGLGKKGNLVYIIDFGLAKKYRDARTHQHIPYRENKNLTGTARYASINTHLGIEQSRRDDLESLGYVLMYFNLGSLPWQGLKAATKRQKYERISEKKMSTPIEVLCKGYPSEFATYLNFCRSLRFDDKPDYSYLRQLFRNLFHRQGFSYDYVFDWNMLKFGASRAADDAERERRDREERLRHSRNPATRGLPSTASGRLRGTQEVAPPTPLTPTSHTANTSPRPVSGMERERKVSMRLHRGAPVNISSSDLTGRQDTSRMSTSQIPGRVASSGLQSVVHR

DYRK4 (human) = DYRK4 (human) (UniProt Q9NR20)
Sequence of DYRK4 (human) (Q9NR20 whole entry, looked up): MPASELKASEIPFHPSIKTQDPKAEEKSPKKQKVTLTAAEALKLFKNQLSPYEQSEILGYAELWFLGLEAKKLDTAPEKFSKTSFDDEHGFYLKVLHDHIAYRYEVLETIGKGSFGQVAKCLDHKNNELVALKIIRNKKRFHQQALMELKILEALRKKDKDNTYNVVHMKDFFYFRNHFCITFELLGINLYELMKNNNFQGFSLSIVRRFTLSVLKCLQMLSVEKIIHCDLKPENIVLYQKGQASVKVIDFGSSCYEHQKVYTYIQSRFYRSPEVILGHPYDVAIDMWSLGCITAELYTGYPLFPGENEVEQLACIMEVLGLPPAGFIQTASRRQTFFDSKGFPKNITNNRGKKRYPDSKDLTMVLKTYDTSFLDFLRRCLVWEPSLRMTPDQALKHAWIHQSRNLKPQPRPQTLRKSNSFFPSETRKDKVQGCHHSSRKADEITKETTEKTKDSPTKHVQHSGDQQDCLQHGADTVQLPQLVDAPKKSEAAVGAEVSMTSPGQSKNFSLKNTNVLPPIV

CAMK1 (human) = CAMK1 (human) (UniProt Q14012)
Sequence of CAMK1 (human) (Q14012 whole entry, looked up): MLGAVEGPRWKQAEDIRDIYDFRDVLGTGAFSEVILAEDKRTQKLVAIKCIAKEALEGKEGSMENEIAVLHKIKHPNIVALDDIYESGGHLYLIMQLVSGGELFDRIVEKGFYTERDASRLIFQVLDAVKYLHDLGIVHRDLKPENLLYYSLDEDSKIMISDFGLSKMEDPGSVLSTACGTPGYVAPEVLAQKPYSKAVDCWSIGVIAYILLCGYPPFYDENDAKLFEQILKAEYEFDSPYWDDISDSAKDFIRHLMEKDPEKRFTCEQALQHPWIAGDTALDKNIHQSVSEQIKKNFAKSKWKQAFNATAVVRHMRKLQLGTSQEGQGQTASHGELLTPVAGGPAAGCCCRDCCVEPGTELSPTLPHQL

BTK (human) = BTK (human) (UniProt Q06187)
GSK3A (human) = GSK3A (human) (UniProt P49840)
MAPK3 (human) = MAPK3 (human) (UniProt P27361)

Sequence of MAP3K9 (human) (P80192 whole entry, looked up): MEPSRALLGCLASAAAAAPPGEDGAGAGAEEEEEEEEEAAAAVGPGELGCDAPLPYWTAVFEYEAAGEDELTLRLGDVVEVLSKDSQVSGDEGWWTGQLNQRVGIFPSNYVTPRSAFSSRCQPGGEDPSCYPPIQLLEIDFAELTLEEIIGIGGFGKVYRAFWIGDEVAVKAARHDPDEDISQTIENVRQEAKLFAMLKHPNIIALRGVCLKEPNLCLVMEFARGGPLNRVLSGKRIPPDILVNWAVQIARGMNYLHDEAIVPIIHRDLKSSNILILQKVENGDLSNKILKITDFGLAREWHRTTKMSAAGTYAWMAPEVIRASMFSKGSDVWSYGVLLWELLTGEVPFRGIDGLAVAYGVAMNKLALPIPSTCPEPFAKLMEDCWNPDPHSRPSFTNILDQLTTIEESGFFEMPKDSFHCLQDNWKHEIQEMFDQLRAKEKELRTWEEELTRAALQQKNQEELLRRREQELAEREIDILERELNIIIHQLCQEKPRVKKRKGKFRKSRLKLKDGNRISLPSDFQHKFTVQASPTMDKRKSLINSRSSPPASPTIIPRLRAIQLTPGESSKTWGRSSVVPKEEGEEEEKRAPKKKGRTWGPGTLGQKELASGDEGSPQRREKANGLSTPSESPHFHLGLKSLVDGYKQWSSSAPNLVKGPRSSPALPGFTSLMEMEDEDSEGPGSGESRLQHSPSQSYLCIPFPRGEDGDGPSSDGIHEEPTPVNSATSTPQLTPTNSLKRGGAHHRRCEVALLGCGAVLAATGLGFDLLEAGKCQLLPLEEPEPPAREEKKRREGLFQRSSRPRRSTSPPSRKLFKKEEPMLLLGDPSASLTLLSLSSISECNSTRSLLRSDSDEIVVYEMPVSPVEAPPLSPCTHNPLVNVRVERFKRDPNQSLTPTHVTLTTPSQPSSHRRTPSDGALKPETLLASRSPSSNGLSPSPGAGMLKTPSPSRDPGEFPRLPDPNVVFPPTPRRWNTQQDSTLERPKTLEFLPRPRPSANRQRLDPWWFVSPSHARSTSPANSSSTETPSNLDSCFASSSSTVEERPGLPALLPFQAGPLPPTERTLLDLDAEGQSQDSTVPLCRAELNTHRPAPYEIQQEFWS

SMILES: CN(C)S(=O)(=O)c1ccc2c(c1)/C(=C/c1cc3c([nH]1)CCCC3)C(=O)N2
- residual activity (SRPK3 (human)): 67.2%
- residual activity (MAP3K9 (human)): 74.6%
- residual activity (BRSK1 (human)): 32.4%
- residual activity (PAK6 (human)): 98.9%
- residual activity (STK25 (human)): 79.6%
- residual activity (FGFR3 (human)): 57.1%
- residual activity (NEK4 (human)): 99.9%
- residual activity (ZAP70 (human)): 90%
- residual activity (CSK (human)): 93.1%
- residual activity (CAMK2G (human)): 98.9%
- residual activity (TGFBR1 (human)): 95.9%
- residual activity (CAMKK2 (human)): 27.3%
- residual activity (CLK4 (human)): 50.7%
- residual activity (ERBB2 (human)): 101%
- residual activity (MAP4K5 (human)): 3.08%
- residual activity (PIM3 (human)): 117%
- residual activity (EPHB2 (human)): 98.4%
- residual activity (EPHA5 (human)): 85.1%
- residual activity (SYK (human)): 77.7%
- residual activity (GSK3B (human)): 95.6%
- residual activity (EPHA2 (human)): 96.5%
- residual activity (CDC42BPA (human)): 92.3%
- residual activity (CDK3 CCNE1 (human)): 96.9%
- residual activity (EPHB1 (human)): 82.8%
- residual activity (KDR (human)): 96.9%
- residual activity (MAP2K1 (human)): 88.7%
- residual activity (WEE1 (human)): 94.5%
- residual activity (MAP3K2 (human)): 37%
- residual activity (SRPK1 (human)): 63.8%
- residual activity (ULK1 (human)): 6.13%
- residual activity (RPS6KA3 KD1 KD2 (human)): 70.1%
- residual activity (GRK6 (human)): 82.6%
- residual activity (MAPK1 (human)): 101%
- residual activity (PRKG2 (human)): 95.9%
- residual activity (EGFR (human)): 93.4%
- residual activity (RPS6KA5 KD2 (human)): 106%
- residual activity (CSNK1D (human)): 99.7%
- residual activity (DYRK4 (human)): 98.2%
- residual activity (CAMK1 (human)): 107%
- residual activity (BTK (human)): 97.4%
- residual activity (GSK3A (human)): 99.4%
- residual activity (MAPK3 (human)): 102%

SMILES: COc1ccc(S(=O)(=O)N(CCO)c2ccccc2CN(C)C/C=C/c2ccc(Cl)cc2)cc1
- residual activity (SRPK3 (human)): 97.3%
- residual activity (MAP3K9 (human)): 102%
- residual activity (BRSK1 (human)): 98.4%
- residual activity (PAK6 (human)): 101%
- residual activity (STK25 (human)): 99.6%
- residual activity (FGFR3 (human)): 70.1%
- residual activity (NEK4 (human)): 98.7%
- residual activity (ZAP70 (human)): 84.7%
- residual activity (CSK (human)): 95.6%
- residual activity (CAMK2G (human)): 98.6%
- residual activity (TGFBR1 (human)): 101%
- residual activity (CAMKK2 (human)): 90.7%
- residual activity (CLK4 (human)): 96%
- residual activity (ERBB2 (human)): 97.8%
- residual activity (MAP4K5 (human)): 99.7%
- residual activity (PIM3 (human)): 105%
- residual activity (EPHB2 (human)): 97.7%
- residual activity (EPHA5 (human)): 98.1%
- residual activity (SYK (human)): 101%
- residual activity (GSK3B (human)): 102%
- residual activity (EPHA2 (human)): 104%
- residual activity (CDC42BPA (human)): 100%
- residual activity (CDK3 CCNE1 (human)): 103%
- residual activity (EPHB1 (human)): 93.3%
- residual activity (KDR (human)): 101%
- residual activity (MAP2K1 (human)): 94.3%
- residual activity (WEE1 (human)): 96%
- residual activity (MAP3K2 (human)): 95.3%
- residual activity (SRPK1 (human)): 105%
- residual activity (ULK1 (human)): 99.7%
- residual activity (RPS6KA3 KD1 KD2 (human)): 98%
- residual activity (GRK6 (human)): 106%
- residual activity (MAPK1 (human)): 97%
- residual activity (PRKG2 (human)): 104%
- residual activity (EGFR (human)): 106%
- residual activity (RPS6KA5 KD2 (human)): 103%
- residual activity (CSNK1D (human)): 102%
- residual activity (DYRK4 (human)): 99.6%
- residual activity (CAMK1 (human)): 105%
- residual activity (BTK (human)): 96.4%
- residual activity (GSK3A (human)): 99.9%
- residual activity (MAPK3 (human)): 95.1%

SMILES: Cc1cccc(-c2nc(C(C)(C)C)[nH]c2-c2ccc3c(c2)OCO3)n1
- residual activity (SRPK3 (human)): 95.1%
- residual activity (MAP3K9 (human)): 94%
- residual activity (BRSK1 (human)): 101%
- residual activity (PAK6 (human)): 103%
- residual activity (STK25 (human)): 104%
- residual activity (FGFR3 (human)): 96.6%
- residual activity (NEK4 (human)): 94.9%
- residual activity (ZAP70 (human)): 106%
- residual activity (CSK (human)): 102%
- residual activity (CAMK2G (human)): 85.5%
- residual activity (TGFBR1 (human)): 35.8%
- residual activity (CAMKK2 (human)): 96%
- residual activity (CLK4 (human)): 95.8%
- residual activity (ERBB2 (human)): 102%
- residual activity (MAP4K5 (human)): 99.2%
- residual activity (PIM3 (human)): 106%
- residual activity (EPHB2 (human)): 93%
- residual activity (EPHA5 (human)): 95.6%
- residual activity (SYK (human)): 87%
- residual activity (GSK3B (human)): 96.8%
- residual activity (EPHA2 (human)): 99.2%
- residual activity (CDC42BPA (human)): 89.6%
- residual activity (CDK3 CCNE1 (human)): 97.6%
- residual activity (EPHB1 (human)): 95.5%
- residual activity (KDR (human)): 94.7%
- residual activity (MAP2K1 (human)): 93.3%
- residual activity (WEE1 (human)): 81.5%
- residual activity (MAP3K2 (human)): 99.9%
- residual activity (SRPK1 (human)): 96.5%
- residual activity (ULK1 (human)): 82.7%
- residual activity (RPS6KA3 KD1 KD2 (human)): 82.4%
- residual activity (GRK6 (human)): 101%
- residual activity (MAPK1 (human)): 95.8%
- residual activity (PRKG2 (human)): 95.9%
- residual activity (EGFR (human)): 96.4%
- residual activity (RPS6KA5 KD2 (human)): 97.5%
- residual activity (CSNK1D (human)): 63.4%
- residual activity (DYRK4 (human)): 89.7%
- residual activity (CAMK1 (human)): 99.8%
- residual activity (BTK (human)): 118%
- residual activity (GSK3A (human)): 93%
- residual activity (MAPK3 (human)): 111%

SMILES: COc1cc2ncnc(Nc3ccc(OCc4ccccc4)cc3)c2cc1OC
- residual activity (SRPK3 (human)): 92.8%
- residual activity (MAP3K9 (human)): 96.5%
- residual activity (BRSK1 (human)): 103%
- residual activity (PAK6 (human)): 95.4%
- residual activity (STK25 (human)): 93.4%
- residual activity (FGFR3 (human)): 102%
- residual activity (NEK4 (human)): 86.9%
- residual activity (ZAP70 (human)): 87.6%
- residual activity (CSK (human)): 72.5%
- residual activity (CAMK2G (human)): 94.2%
- residual activity (TGFBR1 (human)): 95.7%
- residual activity (CAMKK2 (human)): 99.7%
- residual activity (CLK4 (human)): 99.5%
- residual activity (ERBB2 (human)): 42.6%
- residual activity (MAP4K5 (human)): 65.4%
- residual activity (PIM3 (human)): 119%
- residual activity (EPHB2 (human)): 93.9%
- residual activity (EPHA5 (human)): 105%
- residual activity (SYK (human)): 93.1%
- residual activity (GSK3B (human)): 119%
- residual activity (EPHA2 (human)): 106%
- residual activity (CDC42BPA (human)): 101%
- residual activity (CDK3 CCNE1 (human)): 96.3%
- residual activity (EPHB1 (human)): 101%
- residual activity (KDR (human)): 96.8%
- residual activity (MAP2K1 (human)): 94.7%
- residual activity (WEE1 (human)): 94.7%
- residual activity (MAP3K2 (human)): 113%
- residual activity (SRPK1 (human)): 105%
- residual activity (ULK1 (human)): 107%
- residual activity (RPS6KA3 KD1 KD2 (human)): 103%
- residual activity (GRK6 (human)): 104%
- residual activity (MAPK1 (human)): 100%
- residual activity (PRKG2 (human)): 104%
- residual activity (EGFR (human)): 21.3%
- residual activity (RPS6KA5 KD2 (human)): 103%
- residual activity (CSNK1D (human)): 96.6%
- residual activity (DYRK4 (human)): 97.6%
- residual activity (CAMK1 (human)): 98.4%
- residual activity (BTK (human)): 90.6%
- residual activity (GSK3A (human)): 104%
- residual activity (MAPK3 (human)): 98.4%
